# From US20220218827A1, “DELIVERY OF THERAPEUTIC COMPOUNDS WITH IRON OXIDE NANOPARTICLES” (Memorial Sloan Kettering Cancer Center, priority 2012, published 2022)
# Legend:
# [1] = test system: human prostate adenocarcinoma cells (LNCaP); test: LNCaP cell viability, Alamar Blue method; assay type: cell-based; conditions: 48 h, [Doxorubicin]final=7.5 μM, free or intercalated drug, read-out: reduction in cell viability
# Method: Cell viability and in vivo studies. LNCaP cells were seeded on black-walled, clear bottom 96-well plates at a cell density of 10,000 cells per well, supplemented with 100 iL 10% FBS-containing RPMI medium. […] Controls included cells incubated with unloaded nanoparticles or DMSO, corresponding to the free drug's final solvent concentration. Subsequently, the old medium was aspirated, and cell viability was assessed via the Alamar Blue method (Invitrogen). Briefly, the cells were supplemented with 10%-alamar-blue-containing medium (10% FBS-containing RPMI), followed by 3 h incubation in a humidified incubator (37° C., 5% CO2) and recording of fluorescence emission (λ ? =565 nm) with the SpectraMax M5 plate reader. […] Experiments were performed in triplicate unless otherwise stated, with the results are presented as mean±SEM.
# Cell viability and in vivo studies. […] Subsequently, the old medium was aspirated, and cell viability was assessed via the Alamar Blue method (Invitrogen). Briefly, the cells were supplemented with 10%-alamar-blue-containing medium (10% FBS-containing RPMI), followed by 3 h incubation in a humidified incubator (37° C., 5% CO2) and recording of fluorescence emission ? ran, λειλ=585 nm) with the SpectraMax M5 plate reader.
# [2] = test system: PC3 tumors; test: Tumor growth in nude mice bearing PC3 tumors; assay type: in vivo; conditions: versus control animals
# Method: Nude, male mice (n=10) bearing PC3 tumors on their flanks were treated on day 0, day 2 and day 6 with 100 μι, either doxorubicin alone or doxorubi tin-loaded Feraheme®, both at a final doxorubicin concentration of 0.28 mM. Changes in tumor size were evaluated with a microcaliper, and at the end of the 8-day study the mice were euthanized, according to the Institutional Animal Care and Use Committee guidelines. • Data Analysis.
# Specifically, the mice were treated with equal concentrations of the drug on day 0, 2 and 6, and tumor growth was determined with microcalipers. Control animals were treated with 100 μι, of 10% DMSO-containing PBS to match the DMSO content of the free doxorubicin injection, since the drug was dissolved in DMSO and diluted to the desired concentration in PBS. On day 6 and 8, the tumors were measured, and the change in tumor growth was determined by comparing the volume of tumors from treated animals with those of control ones.
smiles,measurement,setting,value
COc1cccc2c1C(=O)c1c(O)c3c(c(O)c1C2=O)C[C@@](O)(C(=O)CO)C[C@@H]3O[C@H]1C[C@H](N)[C@H](O)[C@H](C)O1 [doxorubicin],cytotoxicity at […],[1],60%
same,suppression of tumor growth after three injections,"[2]; iv day 0, 2 and 6, measured day 8, 0.28 mM doxorubicin",34%
same,tumor regression after two injections,"[2]; iv day 0 and 2, measured day 6, 100 μL of 0.28 mM doxorubicin",some tumor growth
